Measurements: US10334851B2, “Herbicidal isoxazolo[5,4-B]pyridines” (BASF SE, priority 2010, dated 2019)

How the values were obtained:
Format in all cases: in vivo
Agrostis stolonifera L. = assay: Greenhouse post-emergence treatment of Agrostis stolonifera L. (white bent); conditions: application rate 2.0 kg/ha, scale 0 (no damage) to 100 (complete destruction)
Excerpt: (§1) The seeds of the test plants were sown separately for each species. For the post-emergence treatment, the test plants were first grown to a height of 3 to 15 cm, depending on the plant habit, and only then treated with the active ingredients which had been suspended or emulsified in water. For this purpose, the test plants were either sown directly and grown in the same containers, or they were first grown separately as seedlings and transplanted into the test containers a few days prior to treatment. Depending on the species, the plants were kept at 10-25° C. or 20-35° C. The test period extended over 2 to 4 weeks. During this time, the plants were tended, and their response to the individual treatments was evaluated. Evaluation was carried out using a scale from 0 to 100. 100 means no emergence of the plants, or complete destruction of at least the aerial moieties, and 0 means no damage, or normal course of growth. A good herbicidal activity is given at values of at least 80 and a very good herbicidal activity is given at values of at least 90. The plants used in the greenhouse experiments belonged to the following species: [table]

Matricaria inodora = assay: Greenhouse post-emergence treatment of Matricaria inodora (horse daisy); conditions: application rate 2.0 kg/ha, scale 0 (no damage) to 100 (complete destruction)
Excerpt: as §1

Setaria faberi = assay: Greenhouse post-emergence treatment of Setaria faberi (giant foxtail); conditions: for pest or weed control at 3000 g/ha / pest or weed control at 2000 g/ha: scale 0 to 100, read-out: damage; for damage: scale 0 to 100
Excerpt: as §1

Chenopodium album = assay: Greenhouse post-emergence treatment of Chenopodium album (fat-hen); conditions: application rate 1.0 kg/ha; for pest or weed control at 1000 g/ha: scale 0 to 100, read-out: damage; for damage: scale 0 to 100
Excerpt: as §1

Polygonum convolvulus = assay: Greenhouse post-emergence treatment of Polygonum convolvulus (wild buckwheat); conditions: application rate 1.0 kg/ha, scale 0 to 100
Excerpt: as §1

Lolium multiflorum = assay: Greenhouse post-emergence treatment of Lolium multiflorum (italian ryegrass); conditions: application rate 1.0 kg/ha, scale 0 (no damage) to 100 (complete destruction)
Excerpt: as §1

Avena fatua = assay: Greenhouse post-emergence treatment of Avena fatua (spring-wild oat); conditions: scale 0 (no damage) to 100 (complete destruction)
Excerpt: as §1

Alopecurus myosuroides = assay: Greenhouse post-emergence treatment of Alopecurus myosuroides (blackgrass); conditions: application rate 1.0 kg/ha, scale 0 (no damage) to 100 (complete destruction)
Excerpt: as §1

Abutilon theophrasti = assay: Greenhouse post-emergence treatment of Abutilon theophrasti (velvetleaf); conditions: scale 0 (no damage) to 100 (complete destruction); for pest or weed control at 3000 g/ha / pest or weed control at 2000 g/ha: Abutilon theophrasti
Excerpt: as §1

[1] = test system: Amaranthus retroflexus L.; assay: Greenhouse post-emergence treatment of Amaranthus retroflexus L. (pigweed); conditions: application rate 1.0 kg/ha; for damage: scale 0 to 100; for pest or weed control at 1000 g/ha: scale 0 to 100, read-out: damage
Excerpt: as §1

Cc1noc2nc(C3CC3)cc(C(=O)OCc3nc(-c4cccs4)no3)c12 [I.1.10]
damage (Agrostis stolonifera L.): 90% | damage (Matricaria inodora): 85%

CCc1noc2nc(C3CC3)cc(C(=O)O)c12 [I.2.25]
pest or weed control at 3000 g/ha (Setaria faberi; application rate 3.0 kg/ha): 95%

O=C(O)c1cc(C2CC2)nc2onc(-c3ccco3)c12 [I.2.4]
damage (Matricaria inodora): 98%

CC(C)c1noc2nc(-c3ccc(F)cc3)cc(C(=O)O)c12 [I.7.4]
damage (Setaria faberi; application rate 3.0 kg/ha): 80%

Cc1ccsc1-c1noc2nc(C3CC3)cc(C(=O)O)c12 [I.2.69]
pest or weed control at 1000 g/ha (Chenopodium album): 95% | damage (Polygonum convolvulus): 85%

CCOC(=O)C1=C(COC(=O)c2cc(C3CC3)nc3onc(C)c23)NC(=O)NC1 [I.1.2]
damage (Matricaria inodora): 90%

COC(=O)c1cc(C2CC2)nc2onc(-c3cccnc3)c12 [I.4.2]
pest or weed control at 3000 g/ha (Setaria faberi; application rate 3.0 kg/ha): 85%

Cc1noc2nc(C3CC3)cc(C(=O)OCc3nc4ccccc4o3)c12 [I.1.21]
damage (Chenopodium album): 100% | damage (Lolium multiflorum): 100%

COc1ccccc1-c1cc(C(=O)O)c2c(C(C)C)noc2n1 [I.7.7]
damage (Setaria faberi; application rate 3.0 kg/ha): 85%

Cc1noc2nc(C3CC3)cc(C(=O)OCC(=O)OC(C)(C)C)c12 [I.1.43]
damage (Avena fatua; application rate 1.0 kg/ha): 90% | damage (Alopecurus myosuroides): 80%

Cc1noc2nc(C3CC3)cc(C(=O)OCC(F)(F)F)c12 [I.1.67]
damage (Avena fatua; application rate 3.0 kg/ha): 95% | damage (Abutilon theophrasti; application rate 3.0 kg/ha): 100%

O=C(O)c1cc(C2(F)CC2)nc2onc(C3(F)CC3)c12
pest or weed control at 3000 g/ha (Setaria faberi; application rate 3.0 kg/ha): 98%

CCc1cc(C(=O)O)c2c(C3CC3)noc2n1 [I.7.17]
pest or weed control at 3000 g/ha (Abutilon theophrasti; application rate 3.0 kg/ha): 100% | pest or weed control at 3000 g/ha (Setaria faberi; application rate 3.0 kg/ha): 90%

CCCc1noc2nc(C3CC3)cc(C(=O)O)c12 [I.2.3]
damage (Abutilon theophrasti; application rate 3.0 kg/ha): 100% | damage (Setaria faberi; application rate 3.0 kg/ha): 85%

Cc1noc2nc(C3CC3)cc(C(=O)OCC#N)c12 [I.1.6]
damage (Abutilon theophrasti; application rate 3.0 kg/ha): 100% | damage (Setaria faberi; application rate 3.0 kg/ha): 95%

O=C(O)c1cc(C2CC2)nc2onc(C3CCCC3)c12 [I.2.14]
pest or weed control at 3000 g/ha (Abutilon theophrasti; application rate 3.0 kg/ha): 100% | pest or weed control at 3000 g/ha (Setaria faberi; application rate 3.0 kg/ha): 90%

O=C(O)c1cc(C2(F)CC2)nc2onc(-c3ccc(C(F)(F)F)cc3)c12 [I.7.59]
damage [1]: 100% | damage (Polygonum convolvulus): 100%

O=C(O)c1cc(C2CC2)nc2onc(-c3ccc([N+](=O)[O-])cc3)c12 [I.2.65]
damage [1]: 100% | damage (Polygonum convolvulus): 100%

CC(C)c1noc2nc(C3CC3)cc(C(=O)O)c12 [I.2.6]
pest or weed control at 3000 g/ha (Abutilon theophrasti; application rate 3.0 kg/ha): 100% | pest or weed control at 3000 g/ha (Setaria faberi; application rate 3.0 kg/ha): 95%

O=C(O)c1cc(C2CC2)nc2onc(-c3ccccc3OC(F)F)c12 [I.2.64]
damage [1]: 100% | damage (Polygonum convolvulus): 80%

Cc1noc2nc(C3(F)CC3)cc(C(=O)O)c12 [I.7.51]
pest or weed control at 3000 g/ha (Setaria faberi; application rate 3.0 kg/ha): 90%

O=C(O)c1cc(C2CC2)nc2onc(-c3ccccc3Br)c12 [I.2.59]
damage (Chenopodium album): 95% | damage (Polygonum convolvulus): 90%

COC(=O)c1cc(C2CC2)nc2onc(-c3cccc(OC)c3)c12 [I.4.19]
damage (Setaria faberi; application rate 3.0 kg/ha): 100%

COc1ccc(-c2noc3nc(C4CC4)cc(C(=O)O)c23)cc1 [I.2.8]
damage (Abutilon theophrasti; application rate 3.0 kg/ha): 100% | damage (Setaria faberi; application rate 3.0 kg/ha): 80%

O=C(O)c1cc(C2CC2)nc2onc(-c3ccc(Br)cc3)c12 [I.2.20]
damage (Abutilon theophrasti; application rate 3.0 kg/ha): 100% | damage (Setaria faberi; application rate 3.0 kg/ha): 95%

O=C(O)c1cc(C2(F)CC2)nc2onc(-c3ccc(Br)cc3)c12 [I.7.60]
damage [1]: 100% | damage (Polygonum convolvulus): 100%

O=C(O)c1cc(C2CC2)nc2onc(-c3cccnc3)c12 [I.2.15]
pest or weed control at 3000 g/ha (Abutilon theophrasti; application rate 3.0 kg/ha): 85% | pest or weed control at 3000 g/ha (Setaria faberi; application rate 3.0 kg/ha): 100%

Cc1noc2nc(C3CC3)cc(C(=O)OC(C)C(N)=O)c12 (stereo not drawn) [I.1.24]
damage (Matricaria inodora): 100%

COC(=O)c1cc(C2CC2)nc2onc(C(F)(F)F)c12 [I.4.6]
pest or weed control at 3000 g/ha (Setaria faberi; application rate 3.0 kg/ha): 80%

O=C(O)c1cc(C2CC2)nc2onc(-c3ccccc3)c12 [I.2.5]
damage (Abutilon theophrasti; application rate 3.0 kg/ha): 100% | damage (Setaria faberi; application rate 3.0 kg/ha): 80%

Cc1noc2nc(C3CC3)cc(C(=O)O)c12 [I.2.1]
pest or weed control at 2000 g/ha (Abutilon theophrasti; application rate 2.0 kg/ha): 95% | pest or weed control at 2000 g/ha (Setaria faberi; application rate 2.0 kg/ha): 100%

CCOC(=O)c1cc(C2CC2)nc2onc(C)c12 [I.1.63]
damage (Avena fatua; application rate 3.0 kg/ha): 80%

CC(C)(C)Cc1noc2nc(C3CC3)cc(C(=O)O)c12 [I.2.2]
damage (Abutilon theophrasti; application rate 2.0 kg/ha): 100% | damage (Setaria faberi; application rate 2.0 kg/ha): 90%

COc1ccc(-c2nc(COC(=O)c3cc(C4CC4)nc4onc(C)c34)co2)cc1 [I.1.31]
damage (Agrostis stolonifera L.): 85% | damage (Matricaria inodora): 95%

O=C(O)c1cc(C2CC2)nc2onc(CCc3ccccc3)c12 [I.2.11]
damage (Abutilon theophrasti; application rate 3.0 kg/ha): 100% | damage (Setaria faberi; application rate 3.0 kg/ha): 100%

COC(=O)c1cc(C2CC2)nc2onc(C)c12 [I.1.39]
damage (Avena fatua; application rate 2.0 kg/ha): 85% | damage (Agrostis stolonifera L.): 90%

COC(=O)c1cc(C2CC2)nc2onc(C3CC3C)c12 (stereo not drawn) [I.4.3]
pest or weed control at 3000 g/ha (Setaria faberi; application rate 3.0 kg/ha): 90%

Cc1ccccc1-c1cc(C(=O)O)c2c(C)noc2n1 [I.5.8]
damage (Setaria faberi; application rate 3.0 kg/ha): 85%

O=C(O)c1cc(C2CC2)nc2onc(C3CC3)c12 [I.2.7]
pest or weed control at 3000 g/ha (Abutilon theophrasti; application rate 3.0 kg/ha): 100% | pest or weed control at 3000 g/ha (Setaria faberi; application rate 3.0 kg/ha): 100%

CC(C)c1noc2nc(C3(F)CC3)cc(C(=O)O)c12 [I.7.67]
pest or weed control at 1000 g/ha (Chenopodium album): 100% | damage (Polygonum convolvulus): 100%

O=C(O)c1cc(C2CC2)nc2onc(-c3ccc(-c4ccccc4)cc3)c12 [I.2.19]
damage (Abutilon theophrasti; application rate 3.0 kg/ha): 100% | damage (Setaria faberi; application rate 3.0 kg/ha): 85%

CCCCc1noc2nc(C3(F)CC3)cc(C(=O)O)c12 [I.7.66]
damage (Chenopodium album): 100% | damage (Polygonum convolvulus): 100%

CC(C)(C)Cc1noc2nc(C3(F)CC3)cc(C(=O)O)c12 [I.7.69]
damage [1]: 100% | damage (Polygonum convolvulus): 100%

O=C(O)c1cc(C2CC2)nc2onc(C(F)(F)F)c12 [I.2.10]
pest or weed control at 3000 g/ha (Abutilon theophrasti; application rate 3.0 kg/ha): 90% | pest or weed control at 3000 g/ha (Setaria faberi; application rate 3.0 kg/ha): 85%

CC1CC1c1noc2nc(C3CC3)cc(C(=O)O)c12 (stereo not drawn) [I.2.13]
pest or weed control at 2000 g/ha (Abutilon theophrasti; application rate 2.0 kg/ha): 100% | pest or weed control at 2000 g/ha (Setaria faberi; application rate 2.0 kg/ha): 95%

Cc1noc2nc(-c3ccc(OC(F)F)cc3)cc(C(=O)O)c12 [I.5.13]
damage (Setaria faberi; application rate 3.0 kg/ha): 95%

CCc1ccc(C(=O)COC(=O)c2cc(C3CC3)nc3onc(C)c23)s1 [I.1.49]
damage (Agrostis stolonifera L.): 85% | damage (Matricaria inodora): 98%

CCCN(CC1CC1)C(=O)COC(=O)c1cc(C2CC2)nc2onc(C)c12 [I.1.35]
damage (Avena fatua; application rate 3.0 kg/ha): 85% | damage (Abutilon theophrasti; application rate 3.0 kg/ha): 90%

CC(C)c1ccc(-c2noc3nc(C4CC4)cc(C(=O)O)c23)cc1 [I.2.66]
damage [1]: 100% | damage (Chenopodium album): 100%

O=C(O)c1cc(C2CC2)nc2onc(-c3ccncc3)c12 [I.2.16]
pest or weed control at 3000 g/ha (Abutilon theophrasti; application rate 3.0 kg/ha): 85% | pest or weed control at 3000 g/ha (Setaria faberi; application rate 3.0 kg/ha): 100%

CCc1noc2nc(C3(F)CC3)cc(C(=O)O)c12 [I.7.90]
pest or weed control at 1000 g/ha [1]: 100% | pest or weed control at 1000 g/ha (Chenopodium album): 100%

CC(C)(C)c1noc2nc(C3(F)CC3)cc(C(=O)O)c12 [I.7.64]
pest or weed control at 1000 g/ha [1]: 100% | pest or weed control at 1000 g/ha (Chenopodium album): 100%

O=C(O)c1cc(C2CC2)nc2onc(C3CCC3)c12 [I.2.12]
pest or weed control at 3000 g/ha (Abutilon theophrasti; application rate 3.0 kg/ha): 100% | pest or weed control at 3000 g/ha (Setaria faberi; application rate 3.0 kg/ha): 90%

O=C(O)c1cc(C2(F)CC2)nc2onc(-c3ccccc3)c12 [I.7.62]
damage [1]: 100% | damage (Chenopodium album): 100%
